Each compound was assayed against T1, human A2a receptor (Homo sapiens, UniProt P29274) (assay: Competition binding assay using Scintillation Proximity technology (A2a activity)). Details: membranes from HEK293 cells expressing the human A2a receptor; 0.5 nM tritiated ligand; Cheng-Prusoff.
T1 construct: purchased Perkin-Elmer RBHA2AM400UA; host or cells: HEK293 cells (membranes)
T1 sequence (P29274 whole entry): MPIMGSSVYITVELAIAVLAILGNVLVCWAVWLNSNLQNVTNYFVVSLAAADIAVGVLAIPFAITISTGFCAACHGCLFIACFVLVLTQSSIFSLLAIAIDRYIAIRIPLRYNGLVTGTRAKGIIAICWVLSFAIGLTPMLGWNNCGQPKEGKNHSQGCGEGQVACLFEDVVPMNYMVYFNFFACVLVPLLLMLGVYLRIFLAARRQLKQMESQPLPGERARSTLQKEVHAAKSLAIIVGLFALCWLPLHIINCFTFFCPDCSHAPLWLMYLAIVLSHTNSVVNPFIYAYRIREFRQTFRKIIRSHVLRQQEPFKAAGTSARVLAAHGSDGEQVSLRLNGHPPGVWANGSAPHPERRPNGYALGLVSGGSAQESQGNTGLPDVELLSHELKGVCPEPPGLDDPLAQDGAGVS
Description: Binding affinities of compounds of the invention for the human A2a receptor were determined in a competition binding assay using Scintillation Proximity technology. Thus, […] from HEK293 cells expressing the human A2a receptor were incubated with a compound of the invention at concentrations ranging from 3000 nM to 0.15 nM in a reaction mixture containing also 0.5 nM of a tritiated form of 5-amino-7-[2-phenethyl]-2-(furan-2-yl)-7H-pyrazolo[4,3-e][1,2,4]triazolo[1,5-c]pyrimidine (the tritiated compound) and 100 μg of wheat germ agglutin-coated yttrium silicate SPA beads for one hour at room temperature with agitation. The beads were then allowed to settle to the bottom of the wells for 1 hr, after which the membrane-associated radioactivity was determined by scintillation counting in a TopCount microplate reader. Ki values were determined using the Cheng-Prusoff equation.
HEK293 cells expressing the human, rat, dog or monkey adenosine 2a receptor (Purchased from Perkin-Elmer # RBHA2AM400UA).
The Tritiated compound was prepared according to published methods.
Wheat germ agglutinin-coated yttrium silicate SPA beads (GE Healthcare # RPNQ0023). Dilute to 25 mg/ml in assay buffer.
Assay Buffer was prepared using Dulbecco's calcium and magnesium free phosphate buffered saline+10 mM MgCl2
Adenosine deaminase from calf intestine, 10 mg/2 ml (Roche #10 102 105 001).
A2a antagonist standard (9-chloro-1-(2-furanyl)-[1,2,4]triazolo1,5-c]quinazolin-5-amine from Tocris Bioscience)
Make eight 1:3 serial dilutions in 100% DMSO from a 3 mM compound stock
Transfer 50 nl of compound into a 384-well OptiPlate (Perkin Elmer).
Typically, final concentrations of compound used in the assay ranged from 3000 nM to 0.152 nM.
Dilute a solution of the Tritiated compound to 1.25 nM in assay buffer. This is a 2.5× solution. The final concentration in the assay is 0.5 nM. Calculate the concentration by counting two 5 μl aliquots.
Use 0.25 ug of membrane/well. Dilute membranes to 9.7 μg/ml in assay buffer. Treat with 20 ug/ml adenosine deaminase (ADA) for 15 minutes at room temperature to degrade endogenous adenosine.
Use 100 μg/well wheat germ agglutinin-coated yttrium silicate SPA beads.
Mix ADA-treated membranes and SPA beads together for 30 min prior to assay.
To the Perkin-Elmer Optiplate-384 containing the compound titration add 20 μl of 2.5× solution of the Tritiated compound and 30 μl of the membrane-bead mixture. Incubate for one hour at room temperature with agitation.
Include total binding (assay buffer+1% DMSO) and non-specific binding (CGS15943, 1 μM) wells.
Allow the beads to settle for one hour.
A curve fitting program (i.e., Prism, Activity Base, Chemcart) is used to determine the EC50. The Ki value is calculated using the Cheng-Prusoff equation. K i=EC50/(1+(radioligand concentration/Kd))
With COc1cccc2c1nc(N)n1nc(Cc3cccc4nc(C)ccc34)cc21 [Ex-57, 7-methoxy-2-((2-methylquinolin-5-yl)methyl)pyrazolo[1,5-c]quinazolin-5-amine] the Ki was 165 nM. In the case of COc1cccc2c1nc(N)n1nc(Cc3ccc(F)c(F)c3F)cc21 [Ex-39, 7-methoxy-2-(2,3,4-trifluorobenzyl)pyrazolo[1,5-c]quinazolin-5-amine], the Ki is reported as 27 nM. COc1cccc2c1nc(N)n1nc(Cc3cccc4cnccc34)cc21 [Ex-44, 2-(isoquinolin-5-ylmethyl)-7-methoxypyrazolo[1,5-c]quinazolin-5-amine] showed a Ki of 18 nM. COc1cccc2c1nc(N)n1nc(Cc3cccc(-n4nc(C)cc4C)c3)cc21 [Ex-54, 2-(3-(3,5-dimethyl-1H-pyrazol-1-yl)benzyl)-7-methoxypyrazolo[1,5-c]quinazolin-5-amine] was tested, and the Ki was 139 nM. Nc1nc2ccc(F)cc2c2cc(C(=O)N3CCN(c4ccccn4)CC3)nn12 [Ex-115, (5-amino-9-fluoropyrazolo[1,5-c]-quinazolin-2-yl)(4-(pyridin-2-yl)-piperazin-1-yl)methanone] gave a Ki of 41 nM. COc1cccc2c1nc(N)n1nc(Cc3ccc(F)cc3)cc21 [Ex-5, 2-(4-fluorobenzyl)-7-methoxypyrazolo[1,5-c]quinazolin-5-amine] was tested, and the Ki was 12 nM. COc1cccc2c1nc(N)n1nc(Cc3ccccc3N3CCOCC3)cc21 [Ex-18, 7-methoxy-2-(2-morpholinobenzyl)pyrazolo[1,5-c]quinazolin-5-amine] gave a Ki of 3 nM. For COc1cccc2c1nc(N)n1nc(Cc3cncnc3)cc21 [Ex-10, 7-methoxy-2-(pyrimidin-5-ylmethyl)pyrazolo[1,5-c]quinazolin-5-amine], the Ki was 36 nM. Compound COc1cccc2c1nc(N)n1nc(Cc3ccccc3OC(F)F)cc21 [Ex-55, 2-(2-(difluoromethoxy)benzyl)-7-methoxypyrazolo[1,5-c]quinazolin-5-amine] has a Ki of 10 nM. COc1cccc2c1nc(N)n1nc(CN3Cc4ccc(F)cc4C3)cc21 [Ex-68, 2-((5-fluoroisoindolin-2-yl)methyl)-7-methoxypyrazolo[1,5-c]quinazolin-5-amine] was tested, and the Ki was 24 nM. Compound COc1cccc2c1nc(N)n1nc(Cc3ccccc3F)cc21 [Ex-30, 2-(2-fluorobenzyl)-7-methoxypyrazolo[1,5-c]quinazolin-5-amine] has a Ki of 1 nM. With COc1cccc2c1nc(N)n1nc(Cc3ccc(F)cc3F)cc21 [Ex-6, 2-(2,4-difluorobenzyl)-7-methoxypyrazolo[1,5-c]quinazolin-5-amine] the Ki was 10 nM. Compound COc1cccc2c1nc(N)n1nc(-c3nnc(N4CCOCC4)o3)cc21 [Ex-101, 7-methoxy-2-(5-morpholino-1,3,4-oxadiazol-2-yl)pyrazolo[1,5-c]quinazolin-5-amine] has a Ki of 39 nM. For COc1cccc2c1nc(N)n1nc(Cc3cccc4ccsc34)cc21 [Ex-53, 2-(benzo[b]thiophen-7-ylmethyl)-7-methoxypyrazolo[1,5-c]quinazolin-5-amine], the Ki was 48 nM. With COc1cccc2c1nc(N)n1nc(Cc3ccccc3C#N)cc21 [Ex-50, 2-((5-amino-7-methoxypyrazolo[1,5-c]quinazolin-2-yl)methyl)benzonitrile] the Ki was 2 nM. For COc1cccc2c1nc(N)n1nc(CN3CCN(c4ccccc4)CC3)cc21 [Ex-66, 7-methoxy-2-((4-phenylpiperazin-1-yl)methyl)pyrazolo [1,5-c]quinazolin-5-amine], the Ki was 145 nM. COc1cccc2c1nc(N)n1nc(CN3CC(O)C3)cc21 [Ex-67, 1-((5-amino-7-methoxypyrazolo[1,5-c]quinazolin-2-yl)methyl)azetidin-3-ol] gave a Ki of 473 nM. COc1cccc2c1nc(N)n1nc(C(=O)N3CCN(C(=O)OC(C)(C)C)CC3)cc21 [Ex-75, tert-butyl 4-(5-amino-7-methoxypyrazolo[1,5-c]quinazoline-2-carbonyl)piperazine-1-carboxylate] showed a Ki of 20 nM. For COc1cccc(Cc2cc3c4cccc(OC)c4nc(N)n3n2)c1 [Ex-34, 7-methoxy-2-(3-methoxybenzyl)pyrazolo[1,5-c]quinazolin-5-amine], the Ki was 7 nM. Nc1nc2ccccc2c2cc(Cc3ccccc3N3CCOCC3)nn12 [Ex-96, 2-(2-morpholinobenzyl)pyrazolo[1,5c]-quinazolin-5-amine] showed a Ki of 53 nM. Compound Nc1nc2c(F)cccc2c2cc(Cc3cccc4cccnc34)nn12 [Ex-109, 7-fluoro-2-(quinolin-8-ylmethyl)pyrazolo[1,5-c]quinazolin-5-amine] has a Ki of 6 nM. In the case of Nc1nc2ccc(F)cc2c2cc(Cc3ccccc3N3CCOCC3)nn12 [Ex-106, 9-fluoro-2-(2-morpholinobenzyl)pyrazolo[1,5-c]quinazolin-5-amine], the Ki is reported as 65 nM. COc1cccc2c1nc(N)n1nc(Cc3cc(Cl)cc(C#N)c3)cc21 [Ex-62, 3-((5-amino-7-methoxypyrazolo[1,5-c]quinazolin-2-yl)methyl)-5-chlorobenzonitrile] showed a Ki of 134 nM. Compound COc1cccc2c1nc(N)n1nc(Cc3ccccc3Cl)cc21 [Ex-45, 2-(2-chlorobenzyl)-7-methoxypyrazolo[1,5-c]quinazolin-5-amine] has a Ki of 10 nM. Compound COCc1cccc(Cc2cc3c4cccc(OC)c4nc(N)n3n2)c1 [Ex-48, 7-methoxy-2-(3-(methoxymethyl)benzyl)pyrazolo[1,5-c]quinazolin-5-amine] has a Ki of 40 nM. Compound COc1cccc2c1nc(N)n1nc(C(=O)N3CCC4(CCNC4)C3)cc21 (stereo not drawn) [Ex-86, (5-amino-7-methoxypyrazolo[1,5-c]quinazolin-2-yl)(2,7-diazaspiro[4.4]nonan-2-yl)methanone] has a Ki of 77 nM. Work on CCN1CCC2(CCN(C(=O)c3cc4c5cccc(OC)c5nc(N)n4n3)C2)C1 (stereo not drawn) [Ex-89, (5-amino-7-methoxypyrazolo[1,5-c]quinazolin-2-yl)(7-ethyl-2,7-diazaspiro[4.4]nonan-2-yl)methanone] yielded a Ki of 43 nM. Compound COc1cccc2c1nc(N)n1nc(Cc3cccc4[nH]ccc34)cc21 [Ex-41, 2-((1H-indol-4-yl)methyl)-7-methoxypyrazolo[1,5-c]quinazolin-5-amine] has a Ki of 5 nM. In the case of COc1cccc2c1nc(N)n1nc(C(=O)Nc3ccccc3)cc21 [Ex-80, 5-amino-7-methoxy-N-phenylpyrazolo[1,5-c]quinazoline-2-carboxamide], the Ki is reported as 3 nM. Nc1nc2c(F)cccc2c2cc(-c3nnc(Cc4ccc5cccnc5c4)o3)nn12 [Ex-113, 7-fluoro-2-(5-(quinolin-7-ylmethyl)-1,3,4-oxadiazol-2-yl)pyrazolo[1,5-c]quinazolin-5-amine] was tested, and the Ki was 7 nM. In the case of COc1cccc2c1nc(N)n1nc(Cc3ccc(N4CCOCC4)cc3)cc21 [Ex-22, 7-methoxy-2-(4-morpholinobenzyl)pyrazolo[1,5-c]quinazolin-5-amine], the Ki is reported as 128 nM. With COc1cccc2c1nc(N)n1nc(Cc3csc(N4CCN(C)CC4)n3)cc21 [Ex-13, 7-methoxy-2-((2-(4-methylpiperazin-1-yl)thiazol-4-yl)methyl)pyrazolo[1,5-c]quinazolin-5-amine] the Ki was 373 nM. COc1cccc2c1nc(N)n1nc(Cc3ccc(N4CCCCC4)cc3)cc21 [Ex-8, 7-methoxy-2-(4-(piperidin-1-yl)benzyl)pyrazolo[1,5-c]quinazolin-5-amine] was tested, and the Ki was 136 nM. Work on COc1cccc2c1nc(N)n1nc(-c3cnco3)cc21 [Ex-2, 7-methoxy-2-(oxazol-5-yl)pyrazolo[1,5-c]quinazolin-5-amine] yielded a Ki of 20 nM. Work on COc1cccc2c1nc(N)n1nc(Cc3ccc4[nH]ncc4c3)cc21 [Ex-16, 2-((1H-indazol-5-yl)methyl)-7-methoxypyrazolo[1,5-c]quinazolin-5-amine] yielded a Ki of 131 nM. With COc1cccc2c1nc(N)n1nc(C(=O)NCc3ccc(Br)cc3F)cc21 [Ex-79, 5-amino-N-(4-bromo-2-fluorobenzyl)-7-methoxypyrazolo[1,5-c]quinazoline-2-carboxamide] the Ki was 1 nM. For COc1cccc2c1nc(N)n1nc(Cc3ccccc3CN3CCOCC3)cc21 [Ex-21, 7-methoxy-2-(2-(morpholinomethyl)benzyl)pyrazolo[1,5-c]quinazolin-5-amine], the Ki was 51 nM. COc1cccc2c1nc(N)n1nc(Cc3c(F)cccc3F)cc21 [Ex-42, 2-(2,6-difluorobenzyl)-7-methoxypyrazolo[1,5-c]quinazolin-5-amine] was tested, and the Ki was 3 nM.

Same assay, conditions: same protocol
With COc1cccc2c1nc(N)n1nc(Cc3ccccc3)cc21 [Ex-4, 2-benzyl-7-methoxypyrazolo[1,5-c]quinazolin-5-amine] the Ki was 9 nM.

Reference: US10688082B2, “Aminopyrazine compounds with A2A antagonist properties” (Merck Sharp & Dohme Corp., priority 2015, dated 2020)
